Here are results for one molecule from patent publication US12152012B2, “BRAG2 inhibitors and applications thereof” (CENTRE NATIONAL DE LA RECHERCHE SCIENTIFIQUE, priority 2018, dated 2024).

In the assay the target is T1, Rac1/Trio (Homo sapiens, UniProt O75962).
T1 construct: human TRIO^DH1PH1 (1232-1550); made in house
Kind of assay: Nucleotide exchange kinetics on liposomes, Rac1 tethered by hexahistidine tag. The assay is classed as biochemical. Particulars: 50 μM; Rac1 tethered to liposomes. The procedure: FIG. 2. Bragsin is a specific inhibitor of the ArfGEF BRAG2 • a. Bragsin1 has no effect on the Sec7 domain of human ArfGEFs in solution. Nucleotide exchange kinetics were measured by fluorescence kinetics in the presence of Bragsin1 (50 μM) or DMSO using purified Sec7 domains and a truncated version of Arf1 (D17Arf1), which can be activated in solution. […] Nucleotide exchange kinetics were determined in the presence of Bragsin1 (50 μM) or DMSO with ArfGEF constructs carrying membrane-binding domains and myristoylated Arf1. […] was artificially tethered to liposomes by a C-terminal hexahistidine tag as described in (Peurois, F. et al. Biochem J 474, 1259-1272 (2017). Representative kinetic profiles are given in FIG. 15. • c. Bragsin1 inhibits the activation of myristoylated Arf6 by BRAG2 on liposomes. Experiments were carried out as in FIG. 2b. Representative kinetic profiles are given in FIG. 16. • d. Dose-response of Bragsin1 and Bragsin2 towards myristoylated Arf1 and BRAG2 on liposomes. Experiments were carried out as in FIG. 2b. • e. Silencing of BRAG2 phenocopies the effect of Bragsin2 on the TGN46 compartment. […]
The effect of Bragsin1 on the GEF efficiency of representative human ArfGEFs was evaluated by fluorescence kinetics using highly purified recombinant Arf GTPases and ArfGEFs. […]

For the molecule `Cc1ccc2oc(C(F)(F)F)cc(=O)c2c1[N+](=O)[O-]` [Bragsin1, 6-methyl-5-nitro-2-(trifluoromethyl)-4H-chromen-4-one], the “Effect on Rac1/Trio exchange activity on liposomes” value is “no effect”.
